From patent US7015244B1 (priority 1998, dated 2006)

What was measured:
tumor = details: Phase II, cytotoxic doses; cited from earlier work
[1] = human, inhaled or intranasal
[2] = tested on: human epidermoid cells, virally infected with HSV-2; details: cited from earlier work
[3] = tested on: human epidermoid cells, virally infected with HSV-2
[4] = tested on: human epidermoid cells, virally infected with HSV-2; details: cited from earlier work; remark: listed apart in the source

Structure (SMILES) | hematologic toxicity (tumor) | overall tumor response rate (tumor) | In Vivo Dose for Average 1200 Gram Lungs, Cytotoxic Max [1] [ng] | concentrations that did not reduce cell viability [2] | Trichothecene in Vitro Concentration, Cytotoxic Min [3] [ng/mL] | Trichothecene in Vitro Concentration, Toxic Lo [3] [ng/mL] | Trichothecene in Vitro Concentration, Cytotoxic Max ([3]; human) [ng/mL] | Trichothecene in Vitro Concentration, Inhibitory 50% [4] [ng/mL] | Trichothecene in Vitro Concentration, Inhibitory 80% [4] [ng/mL] | Trichothecene in Vitro Concentration, Inhibitory 90% [4] [ng/mL] | Trichothecene in Vitro Concentration, Inhibitory 99% [4] [ng/mL] | inhibition of hyperactive protein synthesis [4] [%]
CC(=O)OC[C@]12CCC(C)=C[C@H]1O[C@@H]1[C@H](O)[C@@H](OC(C)=O)[C@@]2(C)[C@]12CO2 [Anguidine] | considerable hematologic toxicity | low | – | – | – | – | – | – | – | – | – | –
CC(=O)OC[C@]12CCC(C)=C[C@H]1O[C@@H]1[C@H](O)[C@@H](OC(C)=O)[C@@]2(C)[C@]12CO2 [DAS] | – | – | 240000 | up to 200 ng/ml | 6 | 201 | 200 | 2.3 | 4.0 | 4.5 | 5.0 | ~99
